Target: T1, pure human RTN4 protein (Homo sapiens, UniProt Q9NQC3)
T1 construct: purchased Fisher Scientific
T1 sequence (Q9NQC3 1-1192): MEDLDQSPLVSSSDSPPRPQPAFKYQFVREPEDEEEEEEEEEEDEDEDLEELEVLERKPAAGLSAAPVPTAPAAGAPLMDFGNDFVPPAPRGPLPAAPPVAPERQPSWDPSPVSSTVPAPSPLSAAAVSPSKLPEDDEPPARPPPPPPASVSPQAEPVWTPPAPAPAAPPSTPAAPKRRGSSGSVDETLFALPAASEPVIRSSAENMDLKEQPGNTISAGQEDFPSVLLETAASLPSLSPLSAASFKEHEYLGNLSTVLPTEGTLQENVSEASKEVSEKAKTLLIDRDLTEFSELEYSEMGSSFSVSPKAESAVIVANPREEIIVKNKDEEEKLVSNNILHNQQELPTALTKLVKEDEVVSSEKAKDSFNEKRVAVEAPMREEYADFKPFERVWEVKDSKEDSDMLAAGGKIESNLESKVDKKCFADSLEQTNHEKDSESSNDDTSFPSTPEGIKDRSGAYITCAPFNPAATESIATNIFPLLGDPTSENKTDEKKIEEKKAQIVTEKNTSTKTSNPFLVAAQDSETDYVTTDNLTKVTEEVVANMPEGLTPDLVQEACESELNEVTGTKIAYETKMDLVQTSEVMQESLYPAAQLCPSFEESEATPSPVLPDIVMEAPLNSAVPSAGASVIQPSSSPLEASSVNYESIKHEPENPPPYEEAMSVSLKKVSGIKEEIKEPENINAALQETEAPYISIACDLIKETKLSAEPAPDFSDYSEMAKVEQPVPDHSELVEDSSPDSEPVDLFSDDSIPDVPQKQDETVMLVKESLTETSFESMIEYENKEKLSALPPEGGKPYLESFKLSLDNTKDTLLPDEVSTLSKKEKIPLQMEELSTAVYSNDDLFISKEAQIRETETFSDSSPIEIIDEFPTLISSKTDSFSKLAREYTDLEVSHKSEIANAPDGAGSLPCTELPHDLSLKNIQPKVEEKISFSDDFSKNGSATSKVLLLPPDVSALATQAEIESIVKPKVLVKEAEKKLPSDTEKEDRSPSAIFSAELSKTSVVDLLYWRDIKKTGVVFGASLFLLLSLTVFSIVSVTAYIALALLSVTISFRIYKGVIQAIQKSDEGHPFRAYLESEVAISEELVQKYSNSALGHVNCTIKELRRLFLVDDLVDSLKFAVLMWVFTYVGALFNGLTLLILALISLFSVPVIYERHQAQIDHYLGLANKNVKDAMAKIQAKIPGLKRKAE
Assay: Gel-based ABPP competition against IAyne labeling of pure human RTN4 protein
Format: binding
Conditions: pure human RTN4 protein, gel-based ABPP
Protocol: FIGS. 11A-11C. DKM 3-30 and analogs. (FIG. 11A) Structures of DKM 3-30 and analogs. (FIG. 11B) Gel-based ABPP analysis showing competition side-by-side competition studies of DKM 3-30, YP 1-46, and AMR 1-125 against IA-rhodamine labelling of pure human RTN4. Shown are the 50% inhibitory concentration (IC50) values for each compound. (FIG. 11C) Serum-free cell survival of U2OS (48 h) or SW620 (24 h) cells treated with DMSO vehicle or each compound (50 μM). Data in (C) are presented as mean±sem. Significance is expressed as *p<0.001 compared to vehicle-treated controls.
Gel-Based ABPP. Gel-based ABPP methods were performed as previously described^24. Recombinant RTN4 (0.06 μg) protein (RTN4-Fisher Scientific) were pre-treated with DMSO or DKM 3-30, respectively, for 1 h at 37° C. in an incubation volume of 50 μL PBS, and were subsequently treated with IAyne (10 μM final concentration) for 30 min at 37° C. CuAAC was performed to append rhodamine-azide onto IAyne probe-labeled proteins. The samples were separated by SDS/PAGE and scanned using a ChemiDoc MP (Bio-Rad Laboratories, Inc). Inhibition of target labeling was assessed by densitometry using ImageStudio Light software.

## C=CC(=O)Nc1ccc(Oc2ccc(Cl)cc2)cc1 [DKM 3-30, N-(4-(4-chlorophenoxy)phenyl)acrylamide]
  displacement of IAyne labelling of RTN4: validated this hit
